Experimental findings from patent publication US12545673B2, “Imidazopyridine derivative and pharmaceutical composition comprising same as active ingredient” (TSD LIFE SCIENCES CO., LTD., priority 2019, dated 2026) are described below.

This experiment addresses MLK3 (Homo sapiens (Human), UniProt Q16584). Description: Evaluation of inhibitory activity of enzyme units, MLK3 ([γ-33P]-ATP filter assay). As to conditions: read-out: IC50(nM) MLK3.

Structures are written as SMILES.

MLK3, sequence (Q16584 whole entry, looked up): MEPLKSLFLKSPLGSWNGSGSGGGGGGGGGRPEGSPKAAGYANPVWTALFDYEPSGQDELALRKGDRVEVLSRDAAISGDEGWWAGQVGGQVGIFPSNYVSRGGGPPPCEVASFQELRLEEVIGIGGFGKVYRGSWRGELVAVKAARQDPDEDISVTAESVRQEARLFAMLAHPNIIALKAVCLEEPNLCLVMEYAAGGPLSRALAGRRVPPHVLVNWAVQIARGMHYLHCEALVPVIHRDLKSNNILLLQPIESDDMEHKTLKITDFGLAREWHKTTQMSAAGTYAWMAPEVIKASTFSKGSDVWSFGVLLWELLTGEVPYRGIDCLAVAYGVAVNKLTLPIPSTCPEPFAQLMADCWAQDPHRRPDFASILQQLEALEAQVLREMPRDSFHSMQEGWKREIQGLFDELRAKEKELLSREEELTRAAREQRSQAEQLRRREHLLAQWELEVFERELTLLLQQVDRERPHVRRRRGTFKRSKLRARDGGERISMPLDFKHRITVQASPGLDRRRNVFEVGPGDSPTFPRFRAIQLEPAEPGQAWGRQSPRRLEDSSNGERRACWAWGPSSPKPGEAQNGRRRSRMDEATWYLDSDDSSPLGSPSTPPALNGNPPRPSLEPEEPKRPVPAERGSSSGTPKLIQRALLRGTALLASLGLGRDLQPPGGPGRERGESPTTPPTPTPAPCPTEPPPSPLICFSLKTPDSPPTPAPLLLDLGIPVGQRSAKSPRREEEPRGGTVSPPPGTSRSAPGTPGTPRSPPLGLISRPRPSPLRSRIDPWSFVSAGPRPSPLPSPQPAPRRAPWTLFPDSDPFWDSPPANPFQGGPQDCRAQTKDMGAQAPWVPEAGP

`CCS(=O)(=O)N1CC[C@H](Nc2c(Br)cnc3[nH]c(-c4cc(C)n(-c5ccc(C(=O)NCCN(C)C)cc5)c4C)nc23)C1` [Example 62, (S)-4-(3-(6-bromo-7-((1-(ethylsulfonyl)pyrrolidine-3-yl)amino)-3H-imidazo[4,5-b]pyridine-2-yl)-2,5-dimethyl-1H-pyrrol-1-yl)-N-(2-(dimethylamino)ethyl)benzamide]: the IC50 (usually the concentration that gives 50% inhibition) is 17 nM. The value for `CCS(=O)(=O)N1CC[C@H](Nc2c(Br)cnc3[nH]c(-c4cc(C)n(-c5ccc(C(=O)N(C)CCN(C)C)cc5)c4C)nc23)C1` [Example 63, (S)-4-(3-(6-bromo-7-((1-(ethylsulfonyl)pyrrolidine-3-yl)amino)-3H-imidazo[4,5-b]pyridine-2-yl)-2,5-dimethyl-1H-pyrrol-1-yl)-N-(2-(dimethylamino)ethyl)-N-methylbenzamide] was 14 nM.

Regarding `CCS(=O)(=O)N1CC[C@H](Nc2c(Br)cnc3nc(-c4cc(C)n(-c5cccc(C(=O)NCCN(C)C)c5C)c4C)[nH]c23)C1` [Example 82, 3-(3-(6-bromo-7-(((S)-1-(ethylsulfonyl)pyrrolidine-3-yl)amino)-1H-imidazo[4,5-b]pyridine-2-yl)-2,5-dimethyl-1H-pyrrol-1-yl)-N-(2-(dimethylamino)ethyl)-2-methylbenzamide], the half-maximal inhibitory concentration (IC50) was 14 nM. Then `CCS(=O)(=O)N1CC[C@H](Nc2c(Br)cnc3nc(-c4cc(C)n(-c5cccc(NC(=O)CN(C)C)c5C)c4C)[nH]c23)C1` [Example 84, N-(3-(3-(6-bromo-7-(((S)-1-(ethylsulfonyl)pyrolidine-3-yl)amino)-1H-imidazo[4,5-b]pyridine-2-yl)-2,5-dimethyl-1H-pyrrol-1-yl)-2-methylphenyl)-2-(dimethylamino) acetamide], with 8 nM; and `CCS(=O)(=O)N1CC[C@H](Nc2c(Br)cnc3nc(-c4cc(C)n(-c5cccc(NC(=O)CN6CCOCC6)c5C)c4C)[nH]c23)C1` [Example 85, N-(3-(3-(6-bromo-7-(((S)-1-(ethylsulfonyl)pyrrolidine-3-yl)amino)-1H-imidazo[4,5-b]pyridine-2-yl)-2,5-dimethyl-1H-pyrrol-1-yl)-2-methylphenyl)-2-morpholinoacetamide], with 11 nM. The value for `CCS(=O)(=O)N1CC[C@H](Nc2c(Br)cnc3nc(-c4cc(C)n(-c5cc(C(=O)N6CCN(C)CC6)ccc5C)c4C)[nH]c23)C1` [Example 92, (3-(3-(6-bromo-7-(((S)-1-(ethylsulfonyl)pyrrolidine-3-yl)amino)-1H-imidazo[4,5-b]pyridine-2-yl)-2,5-dimethyl-1H-pyrrol-1-yl)-4-methylphenyl) (4-methylpiperazine-1-yl) methanone] was 26 nM. With `CCS(=O)(=O)N1CC[C@H](Nc2c(Br)cnc3[nH]c(-c4cc(C)n(-c5ccc(C(=O)N6CCN(C)CC6)cc5C)c4C)nc23)C1` [Example 97, (4-(3-(6-bromo-7-(((S)-1-(ethylsulfonyl)pyrrolidine-3-yl)amino)-3H-imidazo[4,5-b]pyridine-2-yl)-2,5-dimethyl-1H-pyrrol-1-yl)-3-methylphenyl) (4-methylpiperazine-1-yl) methanone], the half-inhibitory concentration (IC50) was found to be 20 nM.
